Test results as given in patent US20250326732A1 (Pretzel Therapeutics, Inc., priority 2021, published 2025).

Target: POLRMT (Homo sapiens (Human), UniProt O00411)
Test: homogeneous TR-FRET assay of mitochondrial transcription (inhibition of POLRMT)
Format: biochemical
Conditions: 7.5 nM POLRMT, 15 nM TFB2M, 30 nM TFAM, 0.5 nM DNA template, 500 μM NTPs, 37° C. for 60 minutes
Procedure, shortened: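 POLRMT transcription from linearized pUC-LSP DNA template; RNA product detected by hybridization of ATTO647 acceptor (1 nM) and biotinylated donor (3 nM) probes plus Europium-streptavidin. Reaction stopped with EDTA/700 mM NaCl buffer, pH 7.5.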

Sequence of POLRMT (O00411 42-1230): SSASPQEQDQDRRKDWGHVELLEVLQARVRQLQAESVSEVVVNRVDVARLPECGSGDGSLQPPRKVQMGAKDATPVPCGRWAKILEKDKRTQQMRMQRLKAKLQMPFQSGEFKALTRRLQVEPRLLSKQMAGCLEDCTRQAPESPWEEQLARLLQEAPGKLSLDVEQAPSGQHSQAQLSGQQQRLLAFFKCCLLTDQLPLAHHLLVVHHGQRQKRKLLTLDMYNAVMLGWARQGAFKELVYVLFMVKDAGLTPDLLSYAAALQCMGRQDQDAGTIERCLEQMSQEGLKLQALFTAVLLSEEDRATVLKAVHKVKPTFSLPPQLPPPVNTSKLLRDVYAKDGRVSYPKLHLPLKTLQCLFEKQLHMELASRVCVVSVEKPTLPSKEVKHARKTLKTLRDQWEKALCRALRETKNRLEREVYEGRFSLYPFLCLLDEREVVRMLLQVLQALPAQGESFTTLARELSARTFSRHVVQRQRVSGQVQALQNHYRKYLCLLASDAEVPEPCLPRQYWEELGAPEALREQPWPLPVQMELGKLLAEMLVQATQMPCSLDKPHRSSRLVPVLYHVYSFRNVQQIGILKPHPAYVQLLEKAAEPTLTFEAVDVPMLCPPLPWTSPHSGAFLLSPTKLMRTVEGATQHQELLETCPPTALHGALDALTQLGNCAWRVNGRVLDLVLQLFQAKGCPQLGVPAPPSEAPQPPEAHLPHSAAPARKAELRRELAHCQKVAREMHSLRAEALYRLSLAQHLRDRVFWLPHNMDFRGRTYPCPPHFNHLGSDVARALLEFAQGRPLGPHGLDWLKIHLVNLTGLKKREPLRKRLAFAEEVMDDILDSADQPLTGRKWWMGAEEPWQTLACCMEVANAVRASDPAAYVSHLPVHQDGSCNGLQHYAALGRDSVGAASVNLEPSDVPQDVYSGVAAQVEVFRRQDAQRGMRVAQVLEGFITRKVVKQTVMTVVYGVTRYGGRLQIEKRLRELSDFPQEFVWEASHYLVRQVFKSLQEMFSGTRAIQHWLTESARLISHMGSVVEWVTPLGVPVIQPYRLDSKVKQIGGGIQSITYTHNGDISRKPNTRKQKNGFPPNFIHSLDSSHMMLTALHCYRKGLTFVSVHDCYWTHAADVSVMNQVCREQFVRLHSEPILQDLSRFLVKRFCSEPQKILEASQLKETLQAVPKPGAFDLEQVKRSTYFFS

Cc1cc(O)c2c(-c3ccc(F)cc3)cc(=O)oc2c1 [Example 12, 4-(4-fluorophenyl)-5-hydroxy-7-methyl-2H-chromen-2-one]
IC50: > 100000 nM

CC(=O)N(C)[C@@H]1CCCN(C(=O)c2ccc3c(-c4ccccc4C)cc(=O)oc3c2)C1 [Example 172, (R)—N-methyl-N-(1-(2-oxo-4-(o-tolyl)-2H-chromene-7-carbonyl)piperidin-3-yl)acetamide]
IC50: > 100000 nM

COC(=O)/C=C(\C)c1ccc2c(-c3ccccc3C)cc(=O)oc2c1 [Example 57, methyl (E)-3-(2-oxo-4-(o-tolyl)-2H-chromen-7-yl)but-2-enoate]
IC50: 300 nM

Cc1ccccc1-c1cc(=O)oc2cc(CNC(=O)C3CCC(C(=O)O)CC3)ccc12 [Example 152, (1R,4R)-4-(((2-oxo-4-(o-tolyl)-2H-chromen-7-yl)methyl)carbamoyl)cyclohexane-1-carboxylic acid]
IC50: 300 nM

Cc1cc(O[C@H](C)C(=O)N(C)C)c2c(-c3ccc(F)cc3)cc(=O)oc2c1 [Example 162, (R)-2-((4-(4-fluorophenyl)-7-methyl-2-oxo-2H-chromen-5-yl)oxy)-N,N-dimethylpropanamide]
IC50: > 100000 nM

3-methoxy-2-((2-oxo-4-phenyl-2H-chromen-7-yl)amino)propanamide [Example 198]
IC50: 2000 nM

Cc1cc(O[C@H](C)C(=O)N2CCCCC2)c2c(-c3ccc(F)cc3)cc(=O)oc2c1 [Example 161, (R)-4-(4-fluorophenyl)-7-methyl-5-((1-oxo-1-(piperidin-1-yl)propan-2-yl)oxy)-2H-chromen-2-one]
IC50: > 100000 nM

COC[C@@H]1CCN(C(=O)c2ccc3c(-c4ccccc4C)cc(=O)oc3c2)C1 [Example 116, (R)-7-(3-(methoxymethyl)pyrrolidine-1-carbonyl)-4-(o-tolyl)-2H-chromen-2-one]
IC50: 45000 nM

Cc1ccccc1-c1cc(=O)oc2cc([C@@H]3C[C@H]3C(=O)N(C)C)ccc12 (relative stereo) [Example 236, (trans)-N,N-dimethyl-2-(2-oxo-4-(o-tolyl)-2H-chromen-7-yl)cyclopropane-1-carboxamide]
IC50: 7000 nM

C[C@@H](Nc1ccc2c(-c3ccc(F)cc3Cl)cc(=O)oc2c1)C(=O)N1CCCCC1 [Example 27, (R)-4-(2-chloro-4-fluorophenyl)-7-((1-oxo-1-(piperidin-1-yl)propan-2-yl)amino)-2H-chromen-2-one]
IC50: 100 nM

CCOC(=O)CCc1ccc2c(-c3ccccc3C)cc(=O)oc2c1 [Example 54, ethyl 3-(2-oxo-4-(o-tolyl)-2H-chromen-7-yl)propanoate]
IC50: 900 nM

Cc1ccccc1-c1cc(=O)oc2cc(C(=O)NCC(N)=O)ccc12 [Example 113, N-(2-amino-2-oxoethyl)-2-oxo-4-(o-tolyl)-2H-chromene-7-carboxamide]
IC50: 12000 nM

Cc1ccccc1-c1cc(=O)oc2cc([C@@H]3C[C@H]3C(=O)O)ccc12 (relative stereo) [Example 227, (trans)-2-(2-oxo-4-(o-tolyl)-2H-chromen-7-yl)cyclopropane-1-carboxylic acid]
IC50: 3000 nM

Cc1ccccc1-c1cc(=O)oc2cc(N(C)Cc3ccc(=O)[nH]c3)ccc12 [Example 209, 5-((methyl(2-oxo-4-(o-tolyl)-2H-chromen-7-yl)amino)methyl)pyridin-2 (1H)-one]
IC50: 300 nM

CNC(=O)CCN(C)c1ccc2c(-c3ccc(F)cc3Cl)cc(=O)oc2c1 [Example 138, 3-((4-(2-chloro-4-fluorophenyl)-2-oxo-2H-chromen-7-yl)(methyl)amino)-N-methylpropanamide]
IC50: 2000 nM

COC[C@H](Nc1ccc2c(-c3ccccc3C)cc(=O)oc2c1)C(=O)N1CCC[C@H](C(=O)O)C1 [Example 103, (S)-1-(O-methyl-N-(2-oxo-4-(o-tolyl)-2H-chromen-7-yl)-seryl)piperidine-3-carboxylic acid]
IC50: 5000 nM

Cc1ccccc1-c1cc(=O)oc2cc(CC(C)C(=O)N3CCCCC3)ccc12 (single isomer, unassigned) [Example 62, 7-(2-methyl-3-oxo-3-(piperidin-1-yl)propyl)-4-(o-tolyl)-2H-chromen-2-one]
IC50: 80 nM

CC(=O)NC[C@H]1CCN(C(=O)c2ccc3c(-c4ccccc4C)cc(=O)oc3c2)C1 [Example 174, (R)—N-((1-(2-oxo-4-(o-tolyl)-2H-chromene-7-carbonyl)pyrrolidin-3-yl)methyl)acetamide]
IC50: 47000 nM

Cc1ccccc1-c1cc(=O)oc2cc(N(C)Cc3ccccn3)ccc12 [Example 168, 7-(methyl(pyridin-2-ylmethyl)amino)-4-(o-tolyl)-2H-chromen-2-one]
IC50: 90 nM

COCCNC(=O)CN(C)c1ccc2c(-c3ccccc3C)cc(=O)oc2c1 [Example 218, N-(2-methoxyethyl)-2-(methyl(2-oxo-4-(o-tolyl)-2H-chromen-7-yl)amino)acetamide]
IC50: 200 nM

Cc1ccccc1-c1cc(=O)oc2cc(CC(C)C(=O)N3CCC[C@H](C#N)C3)ccc12 (single isomer, unassigned) [Example 84]
IC50: 32000 nM

Cc1ccccc1-c1cc(=O)oc2cc(CC(C)C(=O)N3CCC[C@H](S(C)(=O)=O)C3)ccc12 (single isomer, unassigned) [Example 86]
IC50: 5000 nM

Cc1ccccc1-c1cc(=O)oc2cc(N(C)CC(=O)NCC(N)=O)ccc12 [Example 134, N-(2-amino-2-oxoethyl)-2-(methyl(2-oxo-4-(o-tolyl)-2H-chromen-7-yl)amino)acetamide]
IC50: 200 nM

CC(C(N)=O)N(C)c1ccc2c(-c3ccccc3)cc(=O)oc2c1 (stereo not shown) [Example 194, 2-(methyl(2-oxo-4-phenyl-2H-chromen-7-yl)amino)propanamide]
IC50: 300 nM

C[C@@H](Cc1ccc2c(-c3ccc(F)cc3Cl)cc(=O)oc2c1)C(=O)N1CCC[C@H](C(=O)O)C1 [Example 186, (S)-1-((S)-3-(4-(2-chloro-4-fluorophenyl)-2-oxo-2H-chromen-7-yl)-2-methylpropanoyl)piperidine-3-carboxylic acid]
IC50: 28000 nM

Cc1ccccc1-c1cc(=O)oc2cc(N(C)CC(=O)NS(C)(=O)=O)ccc12 [Example 191, 2-(methyl(2-oxo-4-(o-tolyl)-2H-chromen-7-yl)amino)-N-(methylsulfonyl)acetamide]
IC50: 7000 nM

CC(=O)N(C)C1CCN(C(=O)c2ccc3c(-c4ccccc4C)cc(=O)oc3c2)CC1 [Example 110, N-methyl-N-(1-(2-oxo-4-(o-tolyl)-2H-chromene-7-carbonyl)piperidin-4-yl)acetamide]
IC50: 8000 nM

Cc1ccccc1-c1cc(=O)oc2cc(N(C)CC(=O)OC(C)(C)C)ccc12 [Example 70, tert-butyl N-methyl-N-(2-oxo-4-(o-tolyl)-2H-chromen-7-yl)glycinate]
IC50: 40 nM

Cc1ccccc1-c1cc(=O)oc2cc([C@H]3C[C@H]3C(=O)O)ccc12 (racemic) [Example 226, (cis)-2-(2-oxo-4-(o-tolyl)-2H-chromen-7-yl)cyclopropane-1-carboxylic acid]
IC50: 400 nM

CC[C@@H](Nc1ccc2c(-c3ccccc3C)cc(=O)oc2c1)C(N)=O [Example 211, (R)-2-((2-oxo-4-(o-tolyl)-2H-chromen-7-yl)amino)butanamide]
IC50: 1000 nM

Cc1ccccc1-c1cc(=O)oc2cc(N(C)[C@H](C)C(=O)O)ccc12 [Example 108, N-methyl-N-(2-oxo-4-(o-tolyl)-2H-chromen-7-yl)-D-alanine]
IC50: 40 nM
